“Also recorded” adds a separate entry of the source. No end group written: not given here.

For test [1], the system named is human α-adrenergic 2 A receptors. To be noted: CHO-K1 cells expressing human α-adrenergic 2 A receptors (Gαi coupled), 0.15 to 333 nM, xCELLigence; ref not given ("Recent studies"); cited from earlier work. From the text:
Recent studies used the xCELLigence system to monitor activation of endogenous GPCRs. […] Here, we also ...

The subject of the next test is APJ homodimer. The test can be described thus: MALDI-TOF MS of immunoprecipitated APJ complex after treatment with HIV TAT-TMD interference peptides. Format: binding, human. To be noted: peptide 4 μM, 60 min, 37 °C. From the text:
TMDs are important for the formation of head-to-head interfaces in class A GPCR dimers. To identify dimerization interfaces in the seven TMDs of APJ, the effects of cell-penetrating interference peptides (containing the sequence of the hydrophobic transmembrane helices) on APJ homodimerization were examined by MS.
Figure 5 The effects of interference peptides on apelin receptor (APJ) homodimerization as measured by matrix assisted laser desorption […] time-of-flight (MALDI-TOF) mass spectrometry.
The identity of the TMD peptide sequences was analyzed with liquid chromatography (LC)-MS.
MS was performed to identity APJ dimer interfaces in samples treated with TMD peptides. Cells were transfected with APJ and, 48 h later, treated with or without the indicated HIV TAT-TMD fused peptides (4 μM) for 60 min at 37 °C. Extracted proteins were immunoprecipitated using an anti-APJ antibody. Protein A/G PLUS-agarose beads were incubated with proteins for 2 h and washed four times with lysis buffer. The APJ complex was eluted from beads as described previously. Then, the endogenous APJ complex was analyzed with an AXIMA matrix-assisted laser desorption/ionization time-of-flight (MALDI-TOF) system (Shimazdu) in linear positive mode. The mass range was 4–10 kDa and the matrix was Sinapic Acid (SA), 10 mg/ml (50% acetonitrile (ACN), 50% H2O, 0.1% […] (TFA)). The results were calibrated with a Shimadzu MALDI calibration kit (Laser BioLabs).

The test system of test [2] is APJ dimer (APJ-Rluc / APJ-EGFP). The test is described as follows: BRET, effect of interference peptides on APJ homodimers. Format: cell-based, human. An excerpt:
Figure 7 The effect of interference peptides on apelin receptor (APJ) dimers. […] BRET[1] was detected as described above.

Test [3] deals with human umbilical vein endothelial cells (HUVECs). The test can be described thus: xCELLigence RTCA, apelin-13-induced cellular response (cell index) with or without interference peptide. Format: cell-based. To be noted: TMD1 4 μM with apelin-13 10 μM, 0.1 μM or 1 nM; average of quadruplicates. The protocol:
All curves were plotted as the average of quadruplicate treatments, with error bars shown as SEM.
A background step (step 1) was performed before other experimental steps. The background step was performed with each well of the E-Plate 16 containing only culture media (100 μl/well) for 30 min at 37 °C, prior to the addition of 10000 HUVECs per well (100 μl/well). […] The schedule settings were as follows (RTCA Software 2.0): […]

In test [4] the test system is angiotensin-converting enzyme 2 (ACE2). To be noted: cited from earlier work. An excerpt:
The apelin receptor (APJ) is a member of the family A of G-protein-coupled receptors (GPCRs) and is involved in range of physiological and pathological functions including fluid homeostasis, anxiety, and depression, as well as cardiovascular and metabolic disorders. APJ was first identified as an orphan GPCR with closest identity to the angiotensin II (Ang II) receptor. In 1998, the peptide apelin was isolated from bovine stomach extracts as the endogenous ligand of APJ.

Test [5] concerns APJ homodimers (APJ-Rluc / APJ-EGFP). The test can be described thus: BRET, effect of agonist/antagonist treatment on APJ homodimerization. Format: cell-based, human. The note with it: CHO cells co-expressing APJ-Rluc and APJ-EGFP (1:1); concentration not given; four independent experiments in triplicate. On the procedure: We further assessed APJ interactions by co-immunoprecipitation (Co-IP), BRET[1], and Förster resonance energy transfer (FRET). […] BRET studies were performed to confirm APJ homodimerization.
Figure 2 Assessment of apelin receptor (APJ) dimerization using co-immunoprecipitation (Co-IP) and bioluminescence resonance energy transfer (BRET) assays. (A) Assessment of APJ homodimerization with Co-IP. Chinese hamster ovary (CHO) cells were either not transfected (mock) or transfected with HA-APJ, Myc-APJ, or both (co-transfection). HA-APJ and Myc-APJ were also mixed (mix). Immunoprecipitated samples were resolved by SDS-PAGE and immunoblotted with an anti-Myc antibody (upper panel). […] (B) Assessment of APJ homodimerization with BRET[1]. (C) BRET saturation curves. (D) Assessment of effects of agonist-treatment on dimerization by BRET[1]. For BRET, four independent experiments were performed with triplicate samples and the results were expressed as the mean ± SEM of four experiments ([…] versus control group; NS, not significant versus unstimulated cells).
To monitor constitutive APJ interactions, CHO cells were transfected with APJ-Rluc and APJ-EGFP plasmids at a ratio of 1:1, 1:2, 1:3, 1:4, 1:5, and 1:6 to express a constant amount of donor-labeled protein with increasing amounts of acceptor-labeled protein. At 24 h post-transfection, cells were trypsinized and plated on a 96 well microplate for 24 h in HEPES-buffered phenol red-free medium (Invitrogen, Life Technologies). Coelenterazine h (5 μM; Promega) was added for BRET measurements using a Tristar LB941 plate reader (Berthold) with an Rluc filter (400–475 nm) and a EGFP filter (500–550 nm). To monitor the induced interactions of APJ, BRET signals were measured as described above, with slight modifications. […] To measure the effects of interference peptides on APJ dimers, CHO cells were co-transfected with APJ-Rluc and APJ-EGFP (1:3) and incubated with interference peptides corresponding to TMD1, TMD2, TMD3, TMD4, TMD5, TMD6, and TMD7 at 37 °C (4 μM), and BRET[1] detected as described above.
(Bioluminescence resonance energy transfer reports proximity on the nanometre scale.)

Test [6] deals with APJ oligomers (APJ-Rluc, APJ-VN173, APJ-VC155). The test can be described thus: BiFC-BRET, effect of agonist/antagonist treatment on APJ oligomerization. Format: cell-based, human. To be noted: CHO cells co-expressing APJ-Rluc, concentration not given, four independent experiments in triplicate. On the procedure: Additionally, BiFC-BRET assays were performed to detect APJ oligomerization in living cells. Two non-fluorescent fragments (pCE-BiFC-VN173 and pCE-BiFC-VC155) of Venus fluorescent protein were separately fused to APJ (APJ-VN173 and APJ-VC155) (Fig. 4A). CHO cells were then co-transfected with APJ-Rluc, APJ-VN173, and APJ-VC155 and observed with TIRFM.
Figure 4 Assessment of apelin receptor (APJ) oligomerization with bioluminescence resonance energy transfer - bimolecular fluorescence complementation (BiFC-BRET). (A) Principle of BiFC-BRET. The assay examines the formation of functional Venus by the complementation of protein fragments fused to APJ. Association of APJ enables formation of a bimolecular fluorescent complex. If all three tagged APJ proteins interact, BRET can occur. (B) TIRFM detection of APJ dimers (yellow particles) after BiFC. (C) Assessment of APJ oligomerization with BiFC-BRET. (D) Assessment of agonist-induced oligomerization.

The subject of a further test is CHO-K1 cells. Also on record: method as in not given ("Recent studies"). To be noted: serum-deprived CHO-K1 cells, 5 pM to 5 μM, xCELLigence; ref not given ("Recent studies"); cited from earlier work.

In the case of `Brc1c(NC2=NCCN2)ccc2nccnc12` [UK14,304], the cell index response result in test [1] is “induces a dose-dependent increase in CI”.

With “PAIYMLVFLLGTTGNGLVLWTVFYGRKKRRQRRR [TMD1, HIV TAT-fused interference peptide derived from human APJ transmembrane domain 1]”, the “species detected by MALDI-TOF MS / effect of peptide on APJ homodimerization” value in the test on APJ homodimer (cells transfected with APJ, anti-APJ immunoprecipitation, MALDI-TOF linear positive mode, mass range 4–10 kDa, sinapic acid) was “TMD1 dimers, TMD1 tetramers, APJ, [APJ + TMD1], APJ dimers, and [APJ + TMD1] dimers were detected”. Besides, the “binding to APJ (peptides encoding TMDs, MS)” value in the test with APJ homodimer (MALDI-TOF) is given as “can bind to APJ”. Moreover, the “effect on APJ dimer BRET signals” value in test [2] (CHO cells, APJ-Rluc:APJ-EGFP 1:3, peptide 4 μM, 37 °C, four independent experiments in triplicate) is on record as “significantly reduced APJ dimer BRET signals”. In test [2] (CHO cells, APJ-Rluc:APJ-EGFP 1:3, peptide 4 μM, 37 °C, four independent experiments in triplicate, P < 0.01, one range for TMD1, 2, 3 and 4), the “reduction of APJ dimer BRET signals” value is 55–75%. Besides, in test [2] (interference peptides 4 μM, in vitro, by BRET and MS), the “disruption of APJ (homo)dimerization (statement in words)” value is listed as “disrupted APJ dimerization; also recorded: can effectively disrupt the formation of APJ homodimers; also recorded: disrupted APJ homodimerization in vitro”. The “HUVEC cell index (CI), interference peptide with apelin-13” value in test [3] was “led to a decreasing trend in the CI compared to that before treatment”.

Consider apelin, for which the “hydrolysis by ACE2” value in test [4] is “high catalytic efficiency”.

In the case of apelin-17, the “BRET signal versus unstimulated cells (APJ homodimer formation)” value in test [5] was “not significantly different to those of unstimulated cells”. The “BRET ratio versus unstimulated cells (APJ oligomerization, BiFC-BRET)” value in test [6] is “the same as that of unstimulated cells”.

As for “apelin-36: APJ agonist purchased from Phoenix Pharmaceuticals (LVQPRGSRNGPGPWQGGRRKFRRQRPRLSHKGPMPF; Apelin-36; UniProt Q9ULZ1 42-77, looked up)”, in test [5], the “BRET signal versus unstimulated cells (APJ homodimer formation)” value is reported as “not significantly different to those of unstimulated cells”. The “BRET ratio versus unstimulated cells (APJ oligomerization, BiFC-BRET)” value in test [6] is “the same as that of unstimulated cells”.

With “calcitonin: stimulating serum-deprived CHO-K1 cells with calcitonin (CGNLSTCMLGTYTQDFNKFHTFPQTAIGVGAP; ends and bridges not checked; cysteine pairing not given here; UniProt P01258 85-116, looked up)”, the cell index response result in the test with CHO-K1 cells is “a transient agonist-induced increase in CI lasting up to a few hours”.
